US10759754B2, “Aminobenzoic acid derivatives for use as anti-inflammatory agents, anti-metastatic agents and/or anticancer agents” (3R VALO, S.E.C., priority 2016, dated 2020)
Entries after “also recorded” stand apart in the source; their conditions may differ.

How the values were obtained:
MHC-II = assay: Flow cytometry of MHC-II surface antigen in IFNγ-activated human macrophages; type: cell-based; conditions: compound 4 at 10 μM, compound 5 at 25 μM
Protocol: Surface antigen expression analysis. To study membrane receptor expression, THP1-derived human macrophages (750×10^4 cells/mL) were pretreated for 3 h with DMSO or compounds 4 and 5, and then left untreated (control) or treated for 48 h with 50 U/mL IFNγ. The expression level of MHC-II and CD40 was evaluated by flow cytometry as described.^21-23

UBC cell line MB49-I = assay: IFNγ/TNFα-induced NO production (Griess) in MB49-I cells; type: cell-based, murine; conditions: 10 and 50 μM
Protocol: (§1) Evaluation of NO and Urea production by chemical methods. The MB49-I cells and the J774A.1 cells (25×10^3 cells/well) were grown and pretreated, as indicated, with various anti-inflammatory derivatives, precursors and mono-functional derivatives for a period of 3 h. Afterwards the cells were washed twice with 10% FBS RPMI-1640 and then activated to produce NO for a period of 24 h with cytokines INFγ and TNFα. NO production was measured using the Griess reagent method as previously described.^27 This method involves the detection of nitrite ions (NO2^−) formed by the spontaneous oxidation of NO under physiological conditions. According the manufacture procedure (Life Technologies; # G-7921), equal volumes of sulfanilic acid and N-(1-naphthyl)ethylenediamine are mixed together to form the Griess reagent. In the presence of NO2^−, sulfanilic acid is converted to a diazonium salt, which in turn is coupled to N-(1-naphthyl)ethylenediamine to produce a pink coloration that is measured with a spectrophotometer (Biotek, synergy HT) at 548 nm. In the same manner, urea synthesis through arginase-1 activity was measured using commercially available kit.

MB49 cells = assay: Relative cell viability of MB49 cells 24-hour post treatment; type: cell-based, murine; conditions: 3 h treatment, 0-50 μM
Protocol: (§2) Evaluation of cell proliferation by the MTT assay. […] Cells were pretreated for a period of 3 h with vehicle (DMSO) or derivatives 1 and 1A at 0, 10, 25, 37.5, and 50 μM, and then incubated for 24 h in the absence or the presence of INFγ and TNFα. At the end of the culture period, 10 μL of 5 mg/mL methylthiazolyldiphenyl-tetrazolium bromide (MTT) solution was added to each well. After a 3-h incubation period with MTT reagent, 100 μL of MTT solubilization buffer (10% SDS in 10 mM HCl) was added and plates were placed overnight in the cell incubator before absorbance measure. The optical density was read at 580 nm using the Microplate Reader Manager (from Bio-Rad Laboratories).

human UBC T24 cells [1] = assay: Microinvasion assay (matrigel in Boyden chamber), M1-induced T24 cell invasion; type: cell-based
Protocol: Microinvasion assays. Invasion was measured by assessment of human UBC T24 cell migration rate through an artificial basement membrane in a modified Boyden chamber (HTS Transwell System). Briefly, the membrane consisted of a polycarbonate filter with 0.4 μm pores diameter and was coated on ice with Matrigel (BD Biosciences) diluted 1:2 (v/v) in serum-free culture media. T24 cells (50×10^3 cells) were seeded into the Matrigel coat in the upper well of the chamber, while polarized M1 macrophages (50×10^3 cells) were seeded in the lower well. The polycarbonate filter with 0.4 μm pores diameter is too small to left the cells move to the bottom of the lower wells. Thus, non-invading cells into the matrigel coat were removed and cells that migrated down to the polycarbonate filter were stained with Hoescht 33258 dye after a 48-h incubation period, visualized by fluorescence microscopy and counted.

MB49-I cells [2] = assay: Relative cell viability of MB49-I cells 24-hour post treatment; type: cell-based, murine; conditions: 3 h treatment, 0-50 μM
Protocol: as §2

[3] = test system: IL6/STAT3 signaling pathway; assay: Western blot of IL6/STAT3 signaling in MB49-I cells; type: cell-based, murine; conditions: doses as lower as 10 μM
Protocol: (§3) Cell signaling studies: THP1-derived human macrophages (750×10^3 cells/mL) and MB49-I cells (500×10^3 cells/mL) were pretreated for 30 min with vehicle (DMSO), compounds 4 and 5, at 10, 25 or 50 μM; and then washed and recovered immediately (t=0 min) or after 30 min of activation with 50 U/mL IFNγ, 25 ng/mL IL6, or 10 ng/mL TNFα. Cell lysates were prepared and analyzed by immunoblotting as described.^21-23,25 Briefly, protein samples were resolved by SDS-PAGE under reducing conditions and transferred onto a PVDF membrane. Blots were first probed with rabbit polyclonal antibodies against phospho-STAT1 (pSTAT1), pSTAT3, or p-IκB (all at 1:2000) overnight at 4° C. Blots were then incubated with HRP-conjugated goat anti-rabbit IgG Ab (1:3000) for 1 h at room temperature. The same blots were stripped and then probed with anti-STAT1 or anti-STAT3 Abs (both at 1:1000). In both cases, probed molecules were visualized using an enhancement chemiluminescence detection kit (Thermo Fisher Scientific).

human UBC T24 cells [4] = assay: Motility (scratch) assay, IL6-induced, in T24 cells; type: cell-based; conditions: 30 μM
[5] = test system: IκB / NFκB signaling pathway; assay: Western blot of phosphorylated IκB in LPS-activated RAW 264.7 cells; type: cell-based, murine; conditions: 90 min pretreatment at 20 and 37.5 μM, 100 ng/mL LPS 15 min
C57Bl/6J mice = assay: Acute toxicity study with episodic i.p. injections in C57Bl/6J mice; type: in vivo
STAT3 = assay: Western blot of phosphorylated STAT3 in IL6-activated human macrophages; type: cell-based; conditions: human macrophages pretreated 30 min at 10 and 50 μM; 30 min activation with 25 ng/mL IL6
Protocol: as §3

[6] = test system: TNFα/NFκB signaling pathway; assay: Western blot of TNFα/NFκB signaling in MB49-I cells; type: cell-based, murine; conditions: doses as lower as 10 μM
Protocol: as §3

MB49-I cells [7] = assay: LPS/IFNγ-induced NO production in MB49-I cells; type: cell-based, murine; conditions: compound 4 at 30 μM, compound 12 at 10, 20, 37.5 and 50 μM
Protocol: as §1, with “Afterwards the cells were washed twice with 10% FBS RPMI-1640 and then activated to produce NO for a period of 24 h with cytokines INFγ and TNFα.” left out

[8] = test system: macrophage-like J774A.1 cells; assay: IFNγ/TNFα-induced NO production (Griess) in J774A.1 cells; type: cell-based, murine; conditions: pretreatment then IFNγ and TNFα
Protocol: as §1

[9] = i.p. 0, 90, 150, 300 μM during 3 weeks

CC(C)(C)OC(=O)NNC(=O)c1ccc(N2C(=O)C=CC2=O)cc1 [Compound 4, N′-[4-(2,5-dioxo-2,5-dihydro-pyrrol-1-yl)-benzoyl]-hydrazine carboxylic acid tert-butyl ester]
IFNγ-induced MHC-II expression (MHC-II): effective in reducing; also recorded: efficiently inhibited
combined IFNγ/TNFα-induced NO synthesis (UBC cell line MB49-I): efficiently inhibited
relative cell viability / cell survival (MB49 cells): stopping cell proliferation
M1-induced human UBC T24 cell invasion (human UBC T24 cells [1]): efficiently inhibited
relative cell viability / cell survival (MB49-I cells [2]): stopping cell proliferation
IL6/STAT3 signaling pathway (Western blot) [3]: inhibit; also recorded: efficiently inhibited
IL6-induced motility (scratch assay) (human UBC T24 cells [4]): inhibit; also recorded: efficiently inhibited
LPS-activated NFκB signaling pathway (ratio p-IkB/IkB) [5]: efficient to inhibit
tolerability in mice (C57Bl/6J mice; concentrations up to 300 μM): well tolerated
hematocrit (C57Bl/6J mice; [9]): no obvious effect
normal development and viability (C57Bl/6J mice; [9]): no obvious effect
organs weight (C57Bl/6J mice; [9]): no obvious effect
liver histological analysis (hepatocellular injury, inflammation, fibrosis, steatosis) (C57Bl/6J mice; i.p. up to 300 μM during 3 weeks): no evidence of toxicity; also recorded: does not induce features of liver dysfunction
IL6-induced STAT3 activation (ratio of phosphorylated/no phosphorylated proteins) (STAT3): decreased; also recorded: efficiently inhibited
TNFα/NFκB signaling pathway (Western blot) [6]: inhibit; also recorded: efficiently inhibited
LPS/IFNγ-induced NO synthesis (MB49-I cells [7]): inhibitory effect
combined IFNγ/TNFα-induced NO synthesis [8]: effective in reducing; also recorded: efficiently inhibited
